# Results from DBAASP.
# Several values for one entry are separate records, joined by “and”; a condition that tells them apart may be missing. Equal values may be shown once.
# Experiments:
# Experiment in all cases: ≥ marks a high value that may be exact or a test limit, other limits are often not marked, values filed in µg/mL are converted to µM
# Enterococcus faecium = tested on: Enterococcus faecium
# [1] = tested on: Acinetobacter baumannii 4-MRGN
# [2] = tested on: Pseudomonas aeruginosa ATCC 27853
# [3] = tested on: Escherichia coli ATCC 25922
# [4] = tested on: Candida parapsilosis NRRL Y-1761
# [5] = tested on: Pseudomonas aeruginosa ATCC 19660
# [6] = tested on: Fusarium solani NRRL 28548
# Staphylococcus aureus = tested on: Staphylococcus aureus
# [7] = tested on: Acinetobacter baumannii ATCC 17978
# Staphylococcus aureus MR = tested on: Staphylococcus aureus MR
# Enterobacter cloacae = tested on: Enterobacter cloacae
# Aspergillus fumigatus = tested on: Aspergillus fumigatus
# [8] = tested on: Candida krusei NRRL Y-27803
# [9] = tested on: Staphylococcus aureus ATCC 25923
# [10] = tested on: Candida albicans NRRL Y-326
# [11] = tested on: Staphylococcus epidermidis ATCC 51625
# [12] = tested on: Aspergillus flavus ATCC MYA-3651
# [13] = tested on: Staphylococcus aureus ATCC 33592
# [14] = tested on: Klebsiella pneumoniae ATCC 10031
# [15] = tested on: Mucor circinelloides NRRL 3631
# [16] = tested on: Lichtheimia corymbifera NRRL 6251
# [17] = tested on: Pseudomonas aeruginosa ATCC 10145
# [18] = tested on: Escherichia coli ATCC 2592
# [19] = tested on: Candida albicans ATCC 10231
# [20] = tested on: Staphylococcus aureus ATCC 33591
# [21] = tested on: Cryptococcus neoformans ATCC 32045
# [22] = tested on: Staphylococcus aureus Newman
# [23] = tested on: Staphylococcus aureus MU50
# [24] = tested on: Staphylococcus aureus USA 400
# [25] = tested on: Staphylococcus aureus UAMS-1
# [26] = tested on: Staphylococcus aureus USA 200
# Bacillus subtilis 168 = tested on: Bacillus subtilis 168
# [27] = tested on: Staphylococcus aureus USA 300
# [28] = tested on: Candida glabrata ATCC 2001
# [29] = tested on: Staphylococcus epidermidis 1457
# [30] = tested on: Candida tropicalis ATCC 13803
# [31] = tested on: Klebsiella pneumoniae ATCC 13883
# [32] = tested on: Pseudomonas aeruginosa PAO1
smiles,measurement,setting,value
CC[C@H](C)[C@H](NC(=O)[C@H](CCC(=O)O)NC(=O)[C@@H]1CSSC[C@@H]2NC(=O)[C@H](Cc3ccc(O)cc3)NC(=O)[C@@H](NC(=O)[C@@H](NC(=O)[C@H](C)N)[C@@H](C)O)CSSC[C@H](NC(=O)[C@H](CCCN=C(N)N)NC(=O)CNC(=O)[C@H]([C@@H](C)O)NC(=O)[C@H](CCCN=C(N)N)NC2=O)C(=O)N[C@@H](C)C(=O)N[C@@H]([C@@H](C)O)C(=O)N[C@@H](CCCN=C(N)N)C(=O)N[C@@H](CCC(=O)O)C(=O)N[C@@H](CO)C(=O)N[C@@H](CC(C)C)C(=O)N[C@@H](CO)C(=O)NCC(=O)N[C@@H](C(C)C)C(=O)N1)C(=O)N[C@@H](CO)C(=O)NCC(=O)N[C@@H](CCCN=C(N)N)C(=O)N[C@@H](CC(C)C)C(=O)N[C@@H](Cc1ccc(O)cc1)C(=O)N[C@@H](CCCN=C(N)N)C(=O)O [ATCYCRTGRCATRESLSGVCEISGRLYR],MIC,Enterococcus faecium,≥ 99.9 µM
same,MIC,[1],≥ 99.9 µM
same,MIC,[2],> 99.9 µM
CC[C@H](C)[C@H](NC(=O)[C@H](CCCCN)NC(=O)[C@H](C)NC(=O)[C@H](CCCN=C(N)N)NC(=O)[C@H](CC(C)C)NC(=O)[C@H](CCCN=C(N)N)NC(=O)[C@@H](NC(=O)[C@H](CCCCN)NC(=O)[C@@H](NC(=O)[C@H](CCCCN)NC(=O)[C@H](C)NC(=O)[C@H](CCCN=C(N)N)NC(=O)[C@H](CC(C)C)NC(=O)[C@H](CCCCN)NC(=O)[C@@H](N)Cc1ccccc1)[C@@H](C)CC)C(C)C)C(=O)N[C@@H](CCCCN)C(=O)N[C@@H](CC(C)C)C(N)=O [FKLRAKIKVRLRAKIKL],MIC,[3],2.88 µM
same,MIC,[4],30.7 µM
same,MIC,[5],15.4 µM
same,MIC,[6],0.961 µM
same,MIC,Staphylococcus aureus,2.72 µM
same,MIC,[7],7.69 µM
same,MIC,Staphylococcus aureus MR,3.84 µM
same,MIC,Enterobacter cloacae,2.72 µM
same,MIC,Aspergillus fumigatus,≥ 43.5 µM
same,MIC,[8],30.7 µM
same,MIC,[9],2.88 µM
same,MIC,[10],30.7 µM
same,MIC,[11],1.92 µM
same,MIC,[12],≥ 61.5 µM
same,MIC,[2],2.88 µM and 7.69 µM
same,MIC,[13],3.84 µM
same,MIC,[14],15.4 µM
same,MIC,[15],≥ 61.5 µM
same,MIC,[16],0.961 µM
CC(C)C[C@H](NC(=O)[C@H](CCCCN)NC(=O)[C@H](CCCCN)NC(=O)[C@H](CC(C)C)NC(=O)[C@H](CC(C)C)NC(=O)[C@H](CCCCN)NC(=O)[C@H](CCCCN)NC(=O)[C@H](CC(C)C)NC(=O)[C@H](CC(C)C)NC(=O)[C@H](CCCCN)NC(=O)[C@H](CCCCN)NC(=O)[C@H](CC(C)C)NC(=O)[C@H](CC(C)C)NC(=O)[C@H](CCCCN)NC(=O)[C@H](CCCCN)NC(=O)[C@H](CC(C)C)NC(=O)[C@H](CC(C)C)NC(=O)[C@H](CCCCN)NC(=O)[C@H](CCCCN)NC(=O)[C@H](CC(C)C)NC(=O)[C@H](CC(C)C)NC(=O)[C@H](CCCCN)NC(=O)[C@H](CCCCN)NC(=O)[C@H](CC(C)C)NC(=O)[C@H](CC(C)C)NC(=O)[C@H](CCCCN)NC(=O)[C@H](CCCCN)NC(=O)[C@@H](N)CC(C)C)C(=O)O [LKKLLKKLLKKLLKKLLKKLLKKLLKKL],MIC,[17],≥ 36.8 µM
same,MIC,[18],25.9 µM
same,MIC,[19],104 µM
same,MIC,[20],≥ 73.6 µM
same,MIC,[21],≥ 32.9 µM
CC[C@H](C)[C@H](NC(=O)[C@@H](NC(=O)[C@@H]1CCCN1C(=O)[C@H](CC(C)C)NC(=O)[C@@H](NC(=O)[C@@H](N)CO)[C@@H](C)CC)[C@@H](C)O)C(=O)N[C@H](C(=O)N[C@@H](CO)C(=O)N[C@@H](Cc1ccccc1)C(=O)N[C@@H](CC(C)C)C(=O)N[C@@H](CO)C(=O)N[C@@H](CCCCN)C(=O)N[C@H](C(=O)N[C@@H](Cc1ccccc1)C(N)=O)C(C)C)C(C)C [SILPTIVSFLSKVF],MIC,[3],> 50 µM
same,MIC,[22],3.1 µM
same,MIC,[23],6.2 µM
same,MIC,[24],3.1 µM
same,MIC,[25],25 µM
same,MIC,[26],3.1 µM
same,MIC,Bacillus subtilis 168,6.3 µM
same,MIC,[27],3.1 µM
same,MIC,[28],12.5 µM
same,MIC,[19],12.5 µM
same,MIC,[29],3.1 µM
same,MIC,[30],3.1 µM
same,MIC,[31],≥ 50 µM
same,MIC,[32],> 50 µM
